Results taken from patent US20210139441A1 (priority 2017, published 2021).

Test system: Crl:CD(SD) rats
Settings: rat, in vivo

FC(F)(F)[C@@H]1O[C@@H]1C(F)(F)F [(2R,3S)-2,3-bis(trifluoromethyl)oxirane, Cis-2,3-bis(trifluoromethyl)oxirane]
Fractional mortalities (number of deaths/number exposed) (both, Crl:CD(SD)): 0/4
activity level and breathing rate: decreased
bodyweight loss: 3 gram
clinical signs after exposure: no abnormal clinical signs
clinical signs of toxicity: no clinical signs of toxicity
startle response after exposure: normal startle response
startle response during the exposure: normal startle responses
state and response to sound stimulus: prostrate and unresponsive to sound stimulus
